From patent publication US6440970B1, “Pharmaceutical compositions and methods for use” (Targacept, Inc., priority 2000, dated 2002)

Columns and labels:
[1] = system: ganglionic-type nicotinic acetylcholine receptors; assay: Determination of interaction with ganglion receptors; assay type: cell-based; settings: at a concentration of 100 uM; percentage of maximal activation induced by (S)-(-)-nicotine
Experimental: Determination of Interaction with Ganglion Receptors
(§1) The determination of the interaction of the compounds with ganglionic receptors was carried out in accordance with the techniques described in U.S. Pat. No. 5,597,919 to Dull et al. The maximal activation for individual compounds (Emax) was determined as a percentage of the maximal activation induced by (S)-(−)-nicotine. Reported Emax values represent the amount released relative to (S)-(−)-nicotine on a percentage basis.

[2] = biological target: muscle-type nicotinic acetylcholine receptors (Homo sapiens, UniProt P02708+P07510+P11230+Q07001); assay: Determination of interaction with muscle receptors; assay type: cell-based; settings: at a concentration of 100 uM; percentage of maximal activation induced by (S)-(-)-nicotine
Sequence of muscle-type nicotinic acetylcholine receptors (P02708 whole entry): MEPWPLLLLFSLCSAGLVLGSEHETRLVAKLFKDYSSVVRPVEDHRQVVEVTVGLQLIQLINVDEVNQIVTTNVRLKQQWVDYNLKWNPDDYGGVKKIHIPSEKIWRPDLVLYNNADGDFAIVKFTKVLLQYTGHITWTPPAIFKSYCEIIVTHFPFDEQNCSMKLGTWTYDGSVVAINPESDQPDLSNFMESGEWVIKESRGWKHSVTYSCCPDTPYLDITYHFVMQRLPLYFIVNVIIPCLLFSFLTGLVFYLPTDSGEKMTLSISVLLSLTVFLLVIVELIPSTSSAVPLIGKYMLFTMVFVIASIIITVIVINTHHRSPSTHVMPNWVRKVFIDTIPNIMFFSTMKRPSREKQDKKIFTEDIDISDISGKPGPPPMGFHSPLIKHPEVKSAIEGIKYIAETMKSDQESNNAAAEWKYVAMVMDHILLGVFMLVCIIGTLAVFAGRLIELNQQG
Sequence of muscle-type nicotinic acetylcholine receptors (P11230 24-501): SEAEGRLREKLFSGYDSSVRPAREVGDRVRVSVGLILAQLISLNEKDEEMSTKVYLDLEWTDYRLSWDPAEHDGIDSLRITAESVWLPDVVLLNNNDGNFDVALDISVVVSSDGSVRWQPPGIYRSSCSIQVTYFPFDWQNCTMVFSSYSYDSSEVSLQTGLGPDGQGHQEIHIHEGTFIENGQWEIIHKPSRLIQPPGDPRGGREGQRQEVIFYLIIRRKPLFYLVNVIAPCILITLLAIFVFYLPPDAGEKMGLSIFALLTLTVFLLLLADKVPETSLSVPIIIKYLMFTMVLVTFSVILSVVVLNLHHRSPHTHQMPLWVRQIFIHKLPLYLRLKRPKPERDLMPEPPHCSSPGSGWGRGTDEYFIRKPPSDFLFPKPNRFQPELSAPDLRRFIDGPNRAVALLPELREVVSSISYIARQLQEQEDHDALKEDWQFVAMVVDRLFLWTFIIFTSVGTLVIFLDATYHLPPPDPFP
Sequence of muscle-type nicotinic acetylcholine receptors (P07510 23-517): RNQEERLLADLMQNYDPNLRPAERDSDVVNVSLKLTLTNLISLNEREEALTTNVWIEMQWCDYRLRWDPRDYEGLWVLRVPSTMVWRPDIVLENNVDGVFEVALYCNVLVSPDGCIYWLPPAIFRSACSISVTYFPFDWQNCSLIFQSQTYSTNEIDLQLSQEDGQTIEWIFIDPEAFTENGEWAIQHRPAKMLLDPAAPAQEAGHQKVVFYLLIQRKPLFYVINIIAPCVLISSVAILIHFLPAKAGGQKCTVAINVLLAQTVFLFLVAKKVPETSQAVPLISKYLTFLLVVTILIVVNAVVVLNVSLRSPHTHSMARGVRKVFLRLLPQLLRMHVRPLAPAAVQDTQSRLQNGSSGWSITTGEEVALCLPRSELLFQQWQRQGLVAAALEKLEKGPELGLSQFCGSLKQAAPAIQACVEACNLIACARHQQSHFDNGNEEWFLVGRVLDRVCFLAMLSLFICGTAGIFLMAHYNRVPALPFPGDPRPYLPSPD
Sequence of muscle-type nicotinic acetylcholine receptors (Q07001 22-517): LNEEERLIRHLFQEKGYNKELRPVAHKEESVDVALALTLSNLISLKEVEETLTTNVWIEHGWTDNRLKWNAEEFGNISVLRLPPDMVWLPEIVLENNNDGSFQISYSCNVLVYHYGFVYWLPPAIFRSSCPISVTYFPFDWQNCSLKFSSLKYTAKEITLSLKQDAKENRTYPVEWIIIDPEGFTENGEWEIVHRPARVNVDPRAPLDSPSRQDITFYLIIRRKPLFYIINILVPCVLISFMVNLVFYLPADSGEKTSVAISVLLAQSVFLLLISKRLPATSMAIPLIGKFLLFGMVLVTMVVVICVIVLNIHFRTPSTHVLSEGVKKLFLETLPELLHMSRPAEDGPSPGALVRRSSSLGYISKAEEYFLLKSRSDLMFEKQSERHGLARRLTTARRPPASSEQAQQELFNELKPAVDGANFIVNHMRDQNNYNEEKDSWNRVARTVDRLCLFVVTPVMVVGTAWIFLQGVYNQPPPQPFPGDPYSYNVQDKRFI
Experimental: Determination of Interaction with Muscle Receptors
as §1, with “muscle” for “ganglionic”

[3] = biological target: CNS nicotinic receptors; assay: Determination of binding to relevant receptor sites; settings: inhibition constant calculated from IC50 by the method of Cheng et al.
Experimental: Determination of Binding to Relevant Receptor Sites
Binding of the compounds to relevant receptor sites was determined in accordance with the techniques described in U.S. Pat. No. 5,597,919 to Dull et al. Inhibition constants (Ki values), reported in nM, were calculated from the IC50 values using the method of Cheng et al., Biochem, Pharmacol. 22:3099 (1973).

Compound | Emax at ganglionic-type receptors [1] [%] | Emax at muscle-type receptors [2] [%] | Ki [3] [nM]
(1S,4S)-(6-chloro-3-pyridazinyl)-2,5-diazabicyclo[2.2.1]heptane hemigalactarate [Sample No. 4] | 28 | 0 | 
(1S,4S)-(5-pyrimidinyl)-2,5-diazabicyclo[2.2.1]heptane hemigalactarate [Sample No. 3] | 11 | 100 | 
(1S,4S)-(5-(4-methoxyphenoxy)-3-pyridyl)-2,5-diazabicyclo[2.2.1]heptane hemigalactarate [Sample No. 2] | 11 | 12 | 
Brc1cncc(N2C[C@@H]3C[C@H]2CN3)c1 [Sample No. 1, (1S,4S)-(5-bromo-3-pyridyl)-2,5-diazabicyclo[2.2.1]heptane] | 5 | 0 | 56
